From article PMC12388523, “Flavonoids and Sesquiterpene Lactones from Lychnophora ericoides (Arnica-Do-Cerrado) and Their In Vitro Effects on Multiple Myeloma and Acute Myeloid Leukemia” (Metabolites, 2025)

What was measured:
HS-5 cells = assay: Proliferation, [3H]-thymidine uptake, non-malignant HS-5; format: cell-based; settings: HS5; HS-5 (non-malignant), 72 h, 95% confidence interval in brackets; read-out: IC50 inhibition of proliferation
Method: (§1) Acute myeloid leukemia cell line HL-60 and multiple myeloma cell lines AMO-1 and KMS-12-PE were obtained from the German Collection of Microorganisms and Cell Cultures (DSMZ), Braunschweig, Germany, and non-tumorigenic stromal cell line HS-5 was acquired from the American Type Culture Collection (ATCC, Manassas, VA, USA). All cell lines were cultured in RPMI 1640 medium without phenol red (Pan Biotech, Aidenbach, Germany), supplemented with 2 mM glutamine, 100 U/mL penicillin, 100 µg/mL streptomycin (Sigma-Aldrich, St. Louis, MO, USA), and 10% fetal bovine serum (FBS Maximus, Catus Biotech GmbH, Tutzing, Germany) at 37 °C in a humidified atmosphere of 5% CO2/95% air. Cells were fed twice weekly. Logarithmically growing cells were resuspended at 1 × 10^5 cells/mL, plated in triplicate in round-bottom 96-well plates (100 µL per well; Falcon, Becton Dickinson, Franklin Lakes, NJ, USA), and incubated at 37 °C in 5% CO2/95% air for 2 h. […] Cell proliferation was assessed by [^3H]-thymidine uptake. […] Cells were harvested using a semi-automated device, and [^3H]-thymidine incorporation (expressed in counts per minute, cpm) was measured with a scintillation counter (MicroBeta TriLux, PerkinElmer, Waltham, MA, USA). Metabolic activity was assessed by resazurin staining. […] Relative fluorescence units (RFUs) were measured using a Synergy H1 plate reader equipped with a 560 nm excitation/590 nm emission filter set (BioTek; Agilent, Santa Clara, CA, USA). Proliferation and metabolic activity in the absence of compounds were defined as 100% (control), and the values for compound-treated samples were expressed as percentages relative to the control. Selectivity indices were calculated by dividing the IC50 value of each compound against HS-5 cells through the IC50 values against the investigated cell lines.
The Wilcoxon Rank Sum Test was used to analyze proliferation and metabolic activity in the absence and presence of varying compound concentrations (NCSS 2007 software, version 07.1.2, Kaysville, UT, USA). […] IC50 values were calculated using GraphPad Prism 10.1.2. […]

HT-29 cells = system: HT-29 cells; set-up: method as in PMID 29350920; settings: cited from earlier work
KMS-12-PE cells = assay: Metabolic activity, resazurin staining, KMS-12-PE; format: cell-based
Method: (§2) Acute myeloid leukemia cell line HL-60 and multiple myeloma cell lines AMO-1 and KMS-12-PE were obtained from the German Collection of Microorganisms and Cell Cultures (DSMZ), Braunschweig, Germany, and non-tumorigenic stromal cell line HS-5 was acquired from the American Type Culture Collection (ATCC, Manassas, VA, USA). All cell lines were cultured in RPMI 1640 medium without phenol red (Pan Biotech, Aidenbach, Germany), supplemented with 2 mM glutamine, 100 U/mL penicillin, 100 µg/mL streptomycin (Sigma-Aldrich, St. Louis, MO, USA), and 10% fetal bovine serum (FBS Maximus, Catus Biotech GmbH, Tutzing, Germany) at 37 °C in a humidified atmosphere of 5% CO2/95% air. Cells were fed twice weekly. Logarithmically growing cells were resuspended at 1 × 10^5 cells/mL, plated in triplicate in round-bottom 96-well plates (100 µL per well; Falcon, Becton Dickinson, Franklin Lakes, NJ, USA), and incubated at 37 °C in 5% CO2/95% air for 2 h. Subsequently, the compounds were adjusted in the cell culture medium to reach the final concentrations in a total volume of 150 µL and incubated for an additional 72 h. Cell proliferation was assessed by [^3H]-thymidine uptake. Each well was exposed to 2 µCi [^3H]-thymidine (Hartmann Analytic, Braunschweig, Germany) during the final 12–16 h of incubation. Cells were harvested using a semi-automated device, and [^3H]-thymidine incorporation (expressed in counts per minute, cpm) was measured with a scintillation counter (MicroBeta TriLux, PerkinElmer, Waltham, MA, USA). Metabolic activity was assessed by resazurin staining. Resazurin (Carl Roth, Karlsruhe, Germany) was dissolved in distilled water at a concentration of 0.1 mg/mL, and 15 µL of this solution was added to each well, followed by a 2 h incubation at 37 °C. Relative fluorescence units (RFUs) were measured using a Synergy H1 plate reader equipped with a 560 nm excitation/590 nm emission filter set (BioTek; Agilent, Santa Clara, CA, USA). Proliferation and metabolic activity in the absence of compounds were defined as 100% (control), and the values for compound-treated samples were expressed as percentages relative to the control. Selectivity indices were calculated by dividing the IC50 value of each compound against HS-5 cells through the IC50 values against the investigated cell lines.
(§3) The Wilcoxon Rank Sum Test was used to analyze proliferation and metabolic activity in the absence and presence of varying compound concentrations (NCSS 2007 software, version 07.1.2, Kaysville, UT, USA). A p-value < 0.05 was considered statistically significant. IC50 values were calculated using GraphPad Prism 10.1.2. This software reports 95% confidence intervals instead of standard errors. […] Nonetheless, the figures clearly illustrate the IC50 values due to the narrow concentration range tested.
(§4) Proliferation inhibition often leads to cell death. Therefore, the cytotoxic activity of the compounds was further evaluated using a modified 3-(4,5-dimethylthiazol-2-yl)-2,5-diphenyltetrazolium bromide (MTT) assay, the resazurin (Alamar Blue) assay. Metabolically active cells reduce the non-fluorescent dye resazurin to the fluorescent dye resorufin via mitochondrial reductase activity, which correlates with cell viability. In the first step the metabolic activity of the four isolated flavonoids was investigated, showing a dose-dependent reduction, but to a much lower extent than in the proliferation assays (Table A2). In fact, only 7,3′,4′-trimethoxymyricetin (2) inhibited the metabolic activity of all four cell lines by more than 50% at a concentration of 100 µM.

NF-κB = system: NF-κB; set-up: method as in PMID 25621077; settings: HT-29; cited from earlier work
HL-60 cells = assay: Metabolic activity, resazurin staining, HL-60; format: cell-based
Method: as §2, §3, §4

[1] = system: c-Myb-dependent gene expression; set-up: method as in PMID 23501116; settings: read-out: IC50 inhibition of c-Myb-dependent gene expression; cited from earlier work
[2] = system: HL-60, MOLM-13, AMO-1, and KMS-12 PE cancer cells; assay: Proliferation, range over the four tested cancer cell lines; format: cell-based; settings: HL-60, MOLM-13, AMO-1, KMS-12 PE; read-out: IC50 inhibition of proliferation, range over cell lines
Method: as §1, with “air.” for “air. Cells were fed twice weekly. Logarithmically growing cells were resuspended at 1 × 10^5 cells/mL, plated in triplicate in round-bottom 96-well plates (100 µL per well; Falcon, Becton Dickinson, Franklin Lakes, NJ, USA), and incubated at 37 °C in 5% CO2/95% air for 2 h.”, “Selectivity indices were calculated by dividing the IC50 value of each compound against HS-5 cells through the IC50 values against the investigated cell lines.” left out

IC50 (HL-60 cells; Homo sapiens, HL-60, 72 h, resazurin, 95% confidence interval in brackets, read-out: IC50 inhibition of metabolic activity): 1700 nM
IC50 [2]: 1000 to 1600 nM
Structure (SMILES): C=C(C)C(=O)O[C@H]1C[C@@]2(C)OC(=CC2=O)/C(CO)=C\[C@H]2OC(=O)C(=C)[C@H]12 [Compound 5, goyazensolide]
IC50 (HS-5 cells): 2000 nM
IC50 (HT-29 cells): 560 nM
IC50 (KMS-12-PE cells; Homo sapiens, KMS-12-PE, 72 h, resazurin, 95% confidence interval in brackets, read-out: IC50 inhibition of metabolic activity): 1900 nM
Selectivity index (metabolic activity) (KMS-12-PE cells; IC50 HS-5 / IC50 KMS-12-PE): 1.4
NF-κB inhibition (in words) (NF-κB): potent NF-κB inhibitor
Selectivity index (metabolic activity) (HL-60 cells; IC50 HS-5 / IC50 HL-60): 1.5
IC50 [1]: 630 nM
